Laboratory results published in patent publication US10342774B2, “Topical pharmaceutical composition of acitretin” (priority 2013, dated 2019).
Converted amounts (≈) assume the structure as drawn.

Assay: physchem
Conditions: 25 °C, organic solvent or mixture, thermodynamic from solid
Description: The saturation solubility of acitretin was determined by adding an excess amount of acitretin in a conical flask containing a mixture of diethylene glycol monoethyl ether, dimethyl isosorbide, and polysorbate 80, present in a w/w ratio of 3.3:24.1:1. The mixture was kept in a shaking water bath for 24 hours at 25° C.

SMILES: COc1cc(C)c(/C=C/C(C)=C/C=C/C(C)=C/C(=O)O)c(C)c1C [acitretin, all-trans-9-(4-methoxy-2,3,6-trimethylphenyl)-3,7-dimethyl-2,4,6,8-nonatetraenoic acid]
- solubility at 24 h: 2500 µg/mL (≈ 7.66 mM)
